This is an account of results in patent US11364248B2 (AMGEN INC., priority 2017, dated 2022).

Read-outs that look alike come from different tables or passages of the source.

The target in one test is Mcl-1/Bim interaction (Homo sapiens (Human), UniProt Q07820). Put plainly: Cell Free Mcl-1: Bim Affinity Assay (Mcl-1 HTRF). The class given is binding. Conditions: TR-FRET, recombinant human Mcl-1(171-327), biotin-Bim(51-76); read-out: Mel-1 HTRF IC50. Here is the method:
Cell Free Mcl-1: Bim Affinity Assay (Mcl-1 HTRF)
The inhibition of the Mcl-1/Bim interaction was measured using a time-resolved fluorescence resonance energy transfer (TR-FRET) assay. The recombinant human Mcl-1 (C-terminally 6×His tagged Mcl-1 containing residues 171-327) was generated at Amgen Inc (Thousand Oaks, Calif.). A biotinylated peptide derived from human Bim (residues 51-76) was purchased from CPC Scientific (San Jose, Calif.). The TR-FRET assay was conducted in a 384-well white OptiPlate™ (PerkinElmer, Waltham, Mass.) in a total volume of 40 μL. The reaction mixture contained 0.1 nM Mcl-1(171-327), 0.05 nM biotin-Bim(51-76), 0.05 nM LANCER Eu-W1024 Anti-6×His (PerkinElmer), 0.072 nM Streptavidin-Xlent (Cisbio, Bedford, Mass.), and serially diluted test compounds in the binding buffer of 20 mM Hepes, pH 7.5, 150 mM NaCl, 0.016 mM Brij©35, and 1 mM dithiothreitol. Test compounds were pre-incubated with Mcl-1(171-327) and biotin-Bim (51-76) for 60 min before addition of the detection mixture (LANCE Eu-W1024 Anti-6×His and Streptavidin-Xlent). The reaction plates were further incubated overnight and then were read on an Envision® multimode reader (PerkinElmer). Fluorescence signals were measured at 620 nm (40-nm bandwidth) and 665 nm (7.5-nm bandwidth) with a 60 μs delay after excitation at 320 nm (75-nm bandwidth). The signal ratio at 665/620 nm corresponded to the Mcl-1/Bim interaction and was used in all data analyses. The IC50 values of test compounds were determined from duplicate data by analyzing competition curves using a four-parameter sigmoidal model in GraphPad Prism (GraphPad Software, San Diego, Calif.) or in Genedata Screener® (Genedata, Basel, Switzerland).

The next test deals with OPM-2. The test is described as follows: Cell Viability Assay (OPM-2 10 FBS). The class given is cell-based, human. Conditions: OPM-2 cells, CellTiter-Glo, read-out: OPM-2 10% FBS IC50 IP. How it is done: Cell Viability Assay (OPM-2 10 FBS)
The human multiple myeloma cell line, OPM-2, was cultured in complete growth medium containing RPMI 1640 and 10% fetal bovine serum (FBS). Cells were seeded into 384-well plates at 3000 cells/well density in complete growth medium containing 10% FBS, and incubated for 16 h with serially diluted test compounds in a 37° C. incubator with 5% CO2. Cell viability was tested using CellTiter-Glo® assay (Promega, Madison, Wis.) according to the manufacturer recommendations. Luminescence was determined using an EnVision® Multilabel plate reader 25 min after the addition of detection reagent. IC50 values were then calculated with Xlfit using a logistical 4-parameter fit model in GraphPad Prism (GraphPad Software, San Diego, Calif.) or in Genedata Screener® (Genedata, Basel, Switzerland).

Sequence of Mcl-1/Bim interaction (Q07820 171-327): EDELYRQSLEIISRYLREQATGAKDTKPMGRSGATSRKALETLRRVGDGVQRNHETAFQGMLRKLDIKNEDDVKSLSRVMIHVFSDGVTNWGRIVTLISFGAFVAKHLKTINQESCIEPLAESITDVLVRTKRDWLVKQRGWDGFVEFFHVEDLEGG

For the molecule `C[C@@H]1[C@@H](C)CCCC(C2OCC(CO)(N(C)C)CO2)[C@@H]2CC[C@H]2CN2C[C@@]3(CCCc4cc(Cl)ccc43)COc3ccc(cc32)C(=O)NS1(=O)=O` (single isomer, unassigned) [Example 86], the IC50 on Mcl-1/Bim interaction is 0.448 nM; in the test with OPM-2 (Homo sapiens, OPM-2, 16 h), 178 nM. Consider `CO[C@H]1CO[C@@H]([C@@H]2CCC[C@H](C)[C@@H](C)S(=O)(=O)NC(=O)c3ccc4c(c3)N(C[C@@H]3CC[C@H]32)C[C@@]2(CCCc3cc(Cl)ccc32)CO4)OC1` (single isomer, unassigned) [Example 26], for which the IC50 at Mcl-1/Bim interaction was 6.16 nM; with OPM-2 (16 h) it was 14600 nM. In the same order, the values of `C[C@@H]1[C@@H](C)CCC[C@H]([C@H]2OC[C@@](CO)(N(C)C)CO2)[C@@H]2CC[C@H]2CN2C[C@@]3(CCCc4cc(Cl)ccc43)COc3ccc(cc32)C(=O)NS1(=O)=O` (relative stereo) [Example 81, (1S,3′R,6′R,7′S,11′S,12′R)-6-chloro-7′-(cis-5-(dimethylamino)-5-(hydroxymethyl)-1,3-dioxan-2-yl)-11′,12′-dimethyl-3,4-dihydro-2H,15′H-spiro[naphthalene-1,22′-[20]oxa[13]thia[1,14]diazatetracyclo [14.7.2.0~3,6~.0~19,24~]pentacosa[16,18,24]trien]-15′-one 13′,13′-dioxide] are 3.32 nM and 2540 nM. In the same order, the values of `C[C@@H]1[C@@H](C)CCC[C@@H]([C@H]2OC[C@H](CN(C)C)O2)[C@@H]2CC[C@H]2CN2C[C@@]3(CCCc4cc(Cl)ccc43)COc3ccc(cc32)C(=O)NS1(=O)=O` (single isomer, unassigned) [Example 33] are 0.612 nM and 319 nM. For the molecule `CN[C@H]1CO[C@@H]([C@H]2CCC[C@H](C)[C@@H](C)S(=O)(=O)NC(=O)c3ccc4c(c3)N(C[C@@H]3CC[C@H]32)C[C@@]2(CCCc3cc(Cl)ccc32)CO4)OC1` (relative stereo) [Example 41], the half-maximal inhibitory concentration (IC50) on Mcl-1/Bim interaction turned out to be 7.99 nM; in the test with OPM-2 (16 h) it was 7070 nM. For `C[C@@H]1[C@@H](C)C/C=C/[C@H]([C@H]2OC[C@@H](N(C)C)CO2)[C@@H]2CC[C@H]2CN2C[C@@]3(CCCc4cc(Cl)ccc43)COc3ccc(cc32)C(=O)NS1(=O)=O` (relative stereo) [Example 97], the IC50 was determined as 0.308 nM at Mcl-1/Bim interaction and 84 nM in the test on OPM-2 (16 h). In the same order, the values of `C[C@@H]1[C@@H](C)CCCC(C2OCC(N)(CO)CO2)[C@@H]2CC[C@H]2CN2C[C@@]3(CCCc4cc(Cl)ccc43)COc3ccc(cc32)C(=O)NS1(=O)=O` (single isomer, unassigned) [Example 80] are 0.382 nM and 240 nM.

With `C[C@@H]1[C@@H](C)CCC[C@@H]([C@H]2OC[C@@H](N3CC(O)C3)CO2)[C@@H]2CC[C@H]2CN2C[C@@]3(CCCc4cc(Cl)ccc43)COc3ccc(cc32)C(=O)NS1(=O)=O` (single isomer, unassigned) [Example 61], the values for the IC50 on Mcl-1/Bim interaction and with OPM-2 (16 h) were 0.455 nM and 1010 nM, respectively. `C[C@@H]1[C@@H](C)CCC[C@H]([C@H]2OC[C@@H](N3CC4(COC4)C3)CO2)[C@@H]2CC[C@H]2CN2C[C@@]3(CCCc4cc(Cl)ccc43)COc3ccc(cc32)C(=O)NS1(=O)=O` [Example 60, (1S,3′R,6′R,7′S,11′S,12′R)-6-chloro-11′,12′-dimethyl-7′-(cis-5-(2-oxa-6-azaspiro[3.3]hept-6-yl)-1,3-dioxan-2-yl)-3,4-dihydro-2H,15′H-spiro[naphthalene-1,22′-[20]oxa[13]thia[1,14]diazatetracyclo [14.7.2.0~3,6~.0~19,24~]pentacosa[16,18,24]trien]-15′-one 13′,13′-dioxide]: the IC50 is 0.897 nM at Mcl-1/Bim interaction and 610 nM in the test with OPM-2 (Homo sapiens, OPM-2, 16 h). In the case of `C[C@@H]1CC[C@H]([C@H]2OC[C@@H](N(C)C)CO2)[C@@H]2CC[C@H]2CN2C[C@@]3(CCCc4cc(Cl)ccc43)COc3ccc(cc32)C(=O)NS(=O)(=O)C[C@@H]1C` [Example 75, (1S,3′R,6′R,7′S,10′R,11′R)-6-chloro-7′-(cis-5-(dimethylamino)-1,3-dioxan-2-yl)-10′,11′-dimethyl-3,4-dihydro-2H,15′H-spiro[naphthalene-1,22′-[20]oxa[13]thia[1,14]diazatetracyclo [14.7.2.0~3,6~.0~19,24~]pentacosa[16,18,24]trien]-15′-one 13′,13′-dioxide], the values for the IC50 on Mcl-1/Bim interaction and in the test on OPM-2 (16 h) were 13 nM and 6770 nM, respectively. In the same order, the values of `CC[C@@H]1CCCC[C@H]([C@H]2OC[C@@H](N(C)C)CO2)C2CC[C@H]2CN2C[C@@]3(CCCc4cc(Cl)ccc43)COc3ccc(cc32)C(=O)NS1(=O)=O` (stereo in doubt) [Example 73, (1S,3′R,6′S,7′S,12′R)-6-chloro-7′-(cis-5-(dimethylamino)-1,3-dioxan-2-yl)-12′-ethyl-3,4-dihydro-2H,15′H-spiro[naphthalene-1,22′-[20]oxa[13]thia[1,14]diazatetracyclo [14.7.2.0~3,6~.0~19,24~]pentacosa[16,18,24]trien]-15′-one 13′,13′-dioxide] are 0.657 nM and 915 nM. Take `C[C@@H]1[C@@H](C)CCC[C@@H]([C@H]2OC[C@@H](CN(C)C)O2)[C@@H]2CC[C@H]2CN2C[C@@]3(CCCc4cc(Cl)ccc43)COc3ccc(cc32)C(=O)NS1(=O)=O` (single isomer, unassigned) [Example 29]: the values for the IC50 at Mcl-1/Bim interaction and with OPM-2 (16 h) were 0.837 nM and 317 nM, respectively. On to `C[C@@H]1[C@@H](C)CCC[C@H]([C@H]2OC[C@H](N3C(=O)c4ccccc4C3=O)CO2)[C@@H]2CC[C@H]2CN2C[C@@]3(CCCc4cc(Cl)ccc43)COc3ccc(cc32)C(=O)NS1(=O)=O` (relative stereo) [Example 45], for which, at Mcl-1/Bim interaction, the IC50 was found to be 4.68 nM.

On to `COC1CN([C@H]2CO[C@@H]([C@H]3CCC[C@H](C)[C@@H](C)S(=O)(=O)NC(=O)c4ccc5c(c4)N(C[C@@H]4CC[C@H]43)C[C@@]3(CCCc4cc(Cl)ccc43)CO5)OC2)C1` [Example 53, (1S,3′R,6′R,7′S,11′S,12′R)-6-chloro-7′-(cis-5-(3-methoxy-1-azetidinyl)-1,3-dioxan-2-yl)-11′,12′-dimethyl-3,4-dihydro-2H,15′H-spiro[naphthalene-1,22′-[20]oxa[13]thia[1,14]diazatetracyclo [14.7.2.0~3,6~.0~19,24~]pentacosa[16,18,24]trien]-15′-one 13′,13′-dioxide], for which the IC50 in the test on OPM-2 (16 h) stood at 184 nM.

For the molecule `COC[C@@H]1[C@@H](C)CCC[C@H]([C@H]2OC[C@@H](N(C)C)CO2)[C@@H]2CC[C@H]2CN2C[C@@]3(CCCc4cc(Cl)ccc43)COc3ccc(cc32)C(=O)NS1(=O)=O` [Example 91, (1S,3′R,6′R,7′S,11′S,12′S)-6-chloro-7′-(cis-5-(dimethylamino)-1,3-dioxan-2-yl)-12′-(methoxymethyl)-11′-methyl-3,4-dihydro-2H,15′H-spiro[naphthalene-1,22′-[20]oxa[13]thia[1,14]diazatetracyclo [14.7.2.0~3,6~.0~19,24~]pentacosa[16,18,24]trien]-15′-one 13′,13′-dioxide], in the test on OPM-2 (16 h), the IC50 was 47 nM. On the same count and under the same terms, the same measure for `C[C@@H]1[C@@H](C)CCC[C@H]([C@H]2OC[C@@H](N(C)C)CO2)[C@@H]2CC[C@H]2CN2C[C@@]3(CCCc4cc(Cl)ccc43)COc3ccc(nc32)C(=O)NS1(=O)=O` (stereo in doubt) [Example 95]: 108 nM; for `C[C@@H]1CS(=O)(=O)NC(=O)c2ccc3c(c2)N(C[C@@H]2CC[C@H]2[C@@H]([C@H]2OC[C@@H](N(C)C)CO2)CC[C@@H]1C)C[C@@]1(CCCc2cc(Cl)ccc21)CO3` [Example 84, (1S,3′R,6′R,7′S,10′S,11′S)-6-chloro-7′-(cis-5-(dimethylamino)-1,3-dioxan-2-yl)-10′,11′-dimethyl-3,4-dihydro-2H,15′H-spiro[naphthalene-1,22′-[20]oxa[13]thia[1,14]diazatetracyclo [14.7.2.0~3,6~.0~19,24~]pentacosa[16,18,24]trien]-15′-one 13′,13′-dioxide]: 145 nM.
